Assay results taken from PubChem BioAssay AID1845206 (Molecular Pharmacology Branch, DTP, NCI, 2023).
pIC50: −log10 of the molar value.

System: NCI-H1618 multicellular tumor spheroid viability
Test: Anticancer human tumor NCI-H1618 cell line growth inhibition;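 also: spheroids exposed to agents for 7 days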
Conditions: for pIC50: curve of first compound; for viability, T/C: stronger effect = lower value
Source text: Multicellular complex tumor spheroid response to DNA repair inhibitors in combination with DNA-damaging drugs
This study explores the anticancer activities of DNA-damaging drugs and inhibitors of DNA damage repair, both as single agents and in combinations. Complex tumor spheroids comprised of malignant cells, endothelial cells and mesenchymal stem cells served as an in vitro model for human solid tumors. This model system incorporates physiologically relevant features and patient-derived or established malignant cell lines with clinically relevant genetic alterations from many tumor types. Twenty-six patient-derived or established malignant cell lines were evaluated representing sarcoma, melanoma, small cell lung cancer (SCLC), non-small cell lung cancer (NSCLC), as well as bladder, ovarian and pancreatic cancers. The concentration ranges selected for each drug and investigational agent were based upon clinically achievable concentrations if the clinical Cmax of the agent was known.
Compounds. The drugs and compounds olaparib (NSC753686), talazoparib (NSC767125), berzosertib (NSC777718), elimusertib (NSC800525), nedisertib (NSC802822), VX-984 (NSC792969), AZD-1390 (NSC803789), temozolomide (NSC362856), topotecan (NSC609699), trabectedin (NSC813783), staurosporine (NSC755774), and gemcitabine (NSC613327) were obtained from the National Cancer Institute (NCI) Developmental Therapeutics Program Chemical Repository. The FDA-approved anticancer drug set is available from the Developmental Therapeutics Program at https://dtp.cancer.gov/organization/dscb/obtaining/available_plates.htm. […] The stock solutions were prepared in dimethyl sulfoxide (DMSO, Sigma-Aldrich, St. Louis, MO, cat. D2650) at 400-fold the tested concentration and stored at -70 degrees C. Prior to their use, the stock solutions were diluted in fresh medium and the final DMSO concentration in the assay was 0.25% (v/v). All drugs and investigational agents were tested over a range starting from a high concentration at or near the clinical Cmax and decreasing in half-log increments. If the clinical Cmax for an agent had not been determined, the highest concentration tested was 10 microM.
Cell Lines. The patient-derived cancer cell (PDC) lines: 156681-154-R-J1-PDC, 283228-195-R-J1-PDC, 287954-098-R-J1-PDC, 292921-168-R-J2-PDC, 349418-098-R-PDC, 425362-245-T-J1-PDC, 556581-035-R-J1-PDC, and BL0293-F563-PDC were received from the NCI Patient-Derived Models Repository (PDMR, https://pdmr.cancer.gov). The established cell lines HS-SY-2 (RRID:CVCL_8719), MPNST, and SYO-1 (RRID:CVCL_7146) were obtained from the Sloan Kettering Institute. The alveolar soft parts sarcoma cell line ASPS-1 (RRID:CVCL_S738) was established at the NCI and grown from internal seed stocks. The following established cell lines were purchased from the American Type Culture Collection (ATCC, Manassas, VA): G-401 (ATCC, cat. CRL-1441, RRID:CVCL_0270), SW982 (ATCC, cat. HTB-93, RRID:CVCL_1734), VA-ES-BJ (ATCC, cat. CRL-2138, RRID:CVCL_1785), NCI-H719 (ATCC, cat. CRL-5837, RRID:CVCL_1582), NCI-H196 (ATCC, cat. CRL-5823, RRID:CVCL_1509), NCI-H841 (ATCC, cat. CRL-5845, RRID:CVCL_1595), NCI-H1618 (ATCC, cat. CRL-5879, RRID:CVCL_1480), NCI-H1876 (ATCC, cat. CRL-5902, RRID:CVCL_1503), DMS 114 (ATCC, cat. CRL-2066; RRID:CVCL_1174), NCI-H211 (ATCC, cat. CRL-5824; RRID:CVCL_1529), and SW 1271 (ATCC, cat. CRL-2177, RRID:CVCL_1716). The small cell lung cancer cell line COR-L88 was purchased from Sigma-Aldrich (cat. 92031917-1VL, RRID:CVCL_1141). The non-small cell lung cancer cell lines NCI-H226 (RRID:CVCL_1544) and NCI-H322M (RRID:CVCL_1557) were established at the NCI and grown from internal seed stocks. Pooled donor human umbilical vein endothelial cells (HUVEC, Lonza, cat. CC-2519) and human mesenchymal stem cells (hMSC, Lonza, cat. PT-2501) were purchased from Lonza (Walkersville, MD).
Cell Culture. All cells were maintained in an incubator at 37 degrees C and 5% CO2 with 95% humidity. […]

[1] = second compound 0.003 µM, first compound 0.0316 µM
[2] = second compound 0.003 µM, first compound 0.1 µM
[3] = second compound 0.003 µM, first compound 0.316 µM
[4] = second compound 0.003 µM, first compound 1 µM
[5] = second compound 0.003 µM, first compound 3.16 µM
[6] = second compound 0.003 µM, first compound 10 µM
[7] = second compound 0.00949 µM, first compound 0.0316 µM
[8] = second compound 0.00949 µM, first compound 0.1 µM
[9] = second compound 0.00949 µM, first compound 0.316 µM
[10] = second compound 0.00949 µM, first compound 1 µM
[11] = second compound 0.00949 µM, first compound 3.16 µM
[12] = second compound 0.00949 µM, first compound 10 µM
[13] = second compound 0.03 µM, first compound 0.0316 µM
[14] = second compound 0.03 µM, first compound 0.1 µM
[15] = second compound 0.03 µM, first compound 0.316 µM
[16] = second compound 0.03 µM, first compound 1 µM
[17] = second compound 0.03 µM, first compound 3.16 µM
[18] = second compound 0.03 µM, first compound 10 µM
[19] = second compound 0.0949 µM, first compound 0.0316 µM
[20] = second compound 0.0949 µM, first compound 0.1 µM
[21] = second compound 0.0949 µM, first compound 0.316 µM
[22] = second compound 0.0949 µM, first compound 1 µM
[23] = second compound 0.0949 µM, first compound 3.16 µM
[24] = second compound 0.0949 µM, first compound 10 µM
[25] = second compound 0.3 µM, first compound 0.0316 µM
[26] = second compound 0.3 µM, first compound 0.1 µM
[27] = second compound 0.3 µM, first compound 0.316 µM
[28] = second compound 0.3 µM, first compound 1 µM
[29] = second compound 0.3 µM, first compound 3.16 µM
[30] = second compound 0.3 µM, first compound 10 µM

CC1COCCN1c1cc(-c2ccnn2C)c2ccnc(-c3ccn[nH]3)c2n1 (stereo not given) + CC[C@@]1(O)C(=O)OCc2c1cc1n(c2=O)Cc2cc3c(CN(C)C)c(O)ccc3nc2-1
pIC50 (second compound 0.003 µM): > 7.50
pIC50 (second compound 0.00949 µM): > 7.50
pIC50 (second compound 0.03 µM): > 7.50
pIC50 (second compound 0.0949 µM): > 7.50
pIC50 (second compound 0.3 µM): > 7.50
viability, T/C [1]: 29.3%
viability, T/C [2]: 15.1%
viability, T/C [3]: 7%
viability, T/C [4]: 2.06%
viability, T/C [5]: 2.27%
viability, T/C [6]: 0.99%
viability, T/C [7]: 7.33%
viability, T/C [8]: 4.63%
viability, T/C [9]: 4.22%
viability, T/C [10]: 2.35%
viability, T/C [11]: 2.23%
viability, T/C [12]: 1.12%
viability, T/C [13]: 2.57%
viability, T/C [14]: 3.94%
viability, T/C [15]: 3.52%
viability, T/C [16]: 1.99%
viability, T/C [17]: 1.19%
viability, T/C [18]: 0.71%
viability, T/C [19]: 3.01%
viability, T/C [20]: 2.44%
viability, T/C [21]: 5%
viability, T/C [22]: 2.35%
viability, T/C [23]: 2.1%
viability, T/C [24]: 0.81%
viability, T/C [25]: 1.79%
viability, T/C [26]: 1.4%
viability, T/C [27]: 1.52%
viability, T/C [28]: 1.45%
viability, T/C [29]: 0.77%
viability, T/C [30]: 0.65%

COc1cc(C)[nH]c(=O)c1CN1CCc2c(Cl)cc(C(OC)C3COC3)c(Cl)c2C1=O (stereo not given) + CC[C@@]1(O)C(=O)OCc2c1cc1n(c2=O)Cc2cc3c(CN(C)C)c(O)ccc3nc2-1
pIC50 (second compound 0.003 µM): < 5.00
pIC50 (second compound 0.00949 µM): > 7.50
pIC50 (second compound 0.03 µM): > 7.50
pIC50 (second compound 0.0949 µM): > 7.50
pIC50 (second compound 0.3 µM): > 7.50
viability, T/C [1]: 54.1%
viability, T/C [2]: 52.3%
viability, T/C [3]: 78.8%
viability, T/C [4]: 63.3%
viability, T/C [5]: 83.5%
viability, T/C [6]: 53.2%
viability, T/C [7]: 39.5%
viability, T/C [8]: 10.9%
viability, T/C [9]: 17.2%
viability, T/C [10]: 40.1%
viability, T/C [11]: 38.8%
viability, T/C [12]: 29.1%
viability, T/C [13]: 6.67%
viability, T/C [14]: 5.82%
viability, T/C [15]: 8.79%
viability, T/C [16]: 4.86%
viability, T/C [17]: 5.97%
viability, T/C [18]: 7.23%
viability, T/C [19]: 6.1%
viability, T/C [20]: 2.42%
viability, T/C [21]: 2.48%
viability, T/C [22]: 6.01%
viability, T/C [23]: 4.18%
viability, T/C [24]: 6.78%
viability, T/C [25]: 2.05%
viability, T/C [26]: 2.31%
viability, T/C [27]: 2%
viability, T/C [28]: 1.4%
viability, T/C [29]: 3.18%
viability, T/C [30]: 2.92%
